Columns and labels:
Test in all cases: relative viability (nuclei count vs DMSO), 5 days (fraction); higher = more cells survive
NCI-H522 = test system: NCI-H522
In short: (§1)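 Medians of duplicate plates are given as relative viability. That measure is the nuclei count in treated wells divided by the count in vehicle wells. Counts were taken on 4× images of lung cancer cell lines in 1536-well plates, 5 days after pin-tool dosing the day after seeding with one drug alone or a fixed anchor-drug dose plus five library-drug doses (not always all listed) in √10 steps.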

BEN = test system: BEN
In short: as §1

HCC-15 = test system: HCC-15
In short: as §1

201T = test system: 201T
In short: as §1

NCI-H1651 = test system: NCI-H1651
In short: as §1

NCI-H838 = test system: NCI-H838
In short: as §1

NCI-H322M = test system: NCI-H322M
In short: as §1

PC-3 [JPC-3] = test system: PC-3 [JPC-3]
In short: as §1

EMC-BAC-2 = test system: EMC-BAC-2
In short: as §1

LK-2 = test system: LK-2
In short: as §1

NCI-H358 = test system: NCI-H358
In short: as §1

NCI-H520 = test system: NCI-H520
In short: as §1

EKVX = test system: EKVX
In short: as §1

COR-L 105 = test system: COR-L 105
In short: as §1

LU99A = test system: LU99A
In short: as §1

ABC-1 = test system: ABC-1
In short: as §1

NCI-H460 = test system: NCI-H460
In short: as §1

SW 900 = test system: SW 900
In short: as §1

NCI-H727 = test system: NCI-H727
In short: as §1

HCC-44 = test system: HCC-44
In short: as §1

NCI-H2023 = test system: NCI-H2023
In short: as §1

CAL-12T = test system: CAL-12T
In short: as §1

CCNC(=O)c1noc(-c2cc(C(C)C)c(O)cc2O)c1-c1ccc(CN2CCOCC2)cc1 [Luminespib] + CC(=O)c1c(C)c2cnc(Nc3ccc(N4CCNCC4)cn3)nc2n(C2CCCC2)c1=O [Palbociclib] (partner 0.5 µM)
relative viability (NCI-H522; first compound 0.002 µM): 0.848 | relative viability (NCI-H522; first compound 0.006325 µM): 0.937 | relative viability (NCI-H522; first compound 0.02 µM): 0.764 | relative viability (NCI-H522; first compound 0.06325 µM): 0.861 | relative viability (NCI-H522; first compound 0.2 µM): 0.411 | relative viability (BEN; first compound 0.002 µM): 0.472 | relative viability (BEN; first compound 0.006325 µM): 0.468 | relative viability (BEN; first compound 0.02 µM): 0.438 | relative viability (BEN; first compound 0.06325 µM): 0.409 | relative viability (BEN; first compound 0.2 µM): 0.323 | relative viability (HCC-15; first compound 0.002 µM): 0.815 | relative viability (HCC-15; first compound 0.006325 µM): 0.776 | relative viability (HCC-15; first compound 0.02 µM): 0.875 | relative viability (HCC-15; first compound 0.06325 µM): 0.321 | relative viability (HCC-15; first compound 0.2 µM): 0.127 | relative viability (201T; first compound 0.002 µM): 0.363 | relative viability (201T; first compound 0.006325 µM): 0.366 | relative viability (201T; first compound 0.02 µM): 0.309 | relative viability (201T; first compound 0.06325 µM): 0.352 | relative viability (201T; first compound 0.2 µM): 0.356 | relative viability (NCI-H1651; first compound 0.002 µM): 0.544 | relative viability (NCI-H1651; first compound 0.006325 µM): 0.521 | relative viability (NCI-H1651; first compound 0.02 µM): 0.408 | relative viability (NCI-H1651; first compound 0.06325 µM): 0.423 | relative viability (NCI-H1651; first compound 0.2 µM): 0.332 | relative viability (NCI-H838; first compound 0.002 µM): 0.233 | relative viability (NCI-H838; first compound 0.006325 µM): 0.252 | relative viability (NCI-H838; first compound 0.02 µM): 0.16 | relative viability (NCI-H838; first compound 0.06325 µM): 0.14 | relative viability (NCI-H838; first compound 0.2 µM): 0.105 | relative viability (NCI-H322M; first compound 0.002 µM): 0.406 | relative viability (NCI-H322M; first compound 0.006325 µM): 0.471 | relative viability (NCI-H322M; first compound 0.02 µM): 0.448 | relative viability (NCI-H322M; first compound 0.06325 µM): 0.427 | relative viability (NCI-H322M; first compound 0.2 µM): 0.382 | relative viability (PC-3 [JPC-3]; first compound 0.002 µM): 0.558 | relative viability (PC-3 [JPC-3]; first compound 0.006325 µM): 0.544 | relative viability (PC-3 [JPC-3]; first compound 0.02 µM): 0.518 | relative viability (PC-3 [JPC-3]; first compound 0.06325 µM): 0.473 | relative viability (PC-3 [JPC-3]; first compound 0.2 µM): 0.436 | relative viability (EMC-BAC-2; first compound 0.002 µM): 0.543 | relative viability (EMC-BAC-2; first compound 0.006325 µM): 0.495 | relative viability (EMC-BAC-2; first compound 0.02 µM): 0.424 | relative viability (EMC-BAC-2; first compound 0.06325 µM): 0.398 | relative viability (EMC-BAC-2; first compound 0.2 µM): 0.31 | relative viability (LK-2; first compound 0.002 µM): 0.679 | relative viability (LK-2; first compound 0.006325 µM): 0.563 | relative viability (LK-2; first compound 0.02 µM): 0.351 | relative viability (LK-2; first compound 0.06325 µM): 0.0849 | relative viability (LK-2; first compound 0.2 µM): 0.0745 | relative viability (NCI-H358; first compound 0.002 µM): 0.135 | relative viability (NCI-H358; first compound 0.006325 µM): 0.132 | relative viability (NCI-H358; first compound 0.02 µM): 0.102 | relative viability (NCI-H358; first compound 0.06325 µM): 0.0751 | relative viability (NCI-H358; first compound 0.2 µM): 0.0736 | relative viability (NCI-H520; first compound 0.002 µM): 0.301 | relative viability (NCI-H520; first compound 0.006325 µM): 0.213 | relative viability (NCI-H520; first compound 0.02 µM): 0.176 | relative viability (NCI-H520; first compound 0.06325 µM): 0.121 | relative viability (NCI-H520; first compound 0.2 µM): 0.135 | relative viability (EKVX; first compound 0.002 µM): 0.431 | relative viability (EKVX; first compound 0.006325 µM): 0.364 | relative viability (EKVX; first compound 0.02 µM): 0.184 | relative viability (EKVX; first compound 0.06325 µM): 0.342 | relative viability (EKVX; first compound 0.2 µM): 0.138 | relative viability (COR-L 105; first compound 0.002 µM): 0.412 | relative viability (COR-L 105; first compound 0.006325 µM): 0.445 | relative viability (COR-L 105; first compound 0.02 µM): 0.366 | relative viability (COR-L 105; first compound 0.06325 µM): 0.265 | relative viability (COR-L 105; first compound 0.2 µM): 0.289 | relative viability (LU99A; first compound 0.002 µM): 0.369 | relative viability (LU99A; first compound 0.006325 µM): 0.379 | relative viability (LU99A; first compound 0.02 µM): 0.272 | relative viability (LU99A; first compound 0.06325 µM): 0.428 | relative viability (LU99A; first compound 0.2 µM): 0.417 | relative viability (ABC-1; first compound 0.002 µM): 0.925 | relative viability (ABC-1; first compound 0.006325 µM): 0.876 | relative viability (ABC-1; first compound 0.02 µM): 0.494 | relative viability (ABC-1; first compound 0.06325 µM): 0.286 | relative viability (ABC-1; first compound 0.2 µM): 0.245 | relative viability (NCI-H460; first compound 0.002 µM): 0.288 | relative viability (NCI-H460; first compound 0.006325 µM): 0.126 | relative viability (NCI-H460; first compound 0.02 µM): 0.0359 | relative viability (NCI-H460; first compound 0.06325 µM): 0.0096 | relative viability (NCI-H460; first compound 0.2 µM): 0.0106 | relative viability (SW 900; first compound 0.002 µM): 0.577 | relative viability (SW 900; first compound 0.006325 µM): 0.566 | relative viability (SW 900; first compound 0.02 µM): 0.549 | relative viability (SW 900; first compound 0.06325 µM): 0.144 | relative viability (SW 900; first compound 0.2 µM): 0.134 | relative viability (NCI-H727; first compound 0.002 µM): 0.668 | relative viability (NCI-H727; first compound 0.006325 µM): 0.665 | relative viability (NCI-H727; first compound 0.02 µM): 0.631 | relative viability (NCI-H727; first compound 0.06325 µM): 0.45 | relative viability (NCI-H727; first compound 0.2 µM): 0.424 | relative viability (HCC-44; first compound 0.002 µM): 0.942 | relative viability (HCC-44; first compound 0.006325 µM): 0.998 | relative viability (HCC-44; first compound 0.02 µM): 1.09 | relative viability (HCC-44; first compound 0.06325 µM): 0.986 | relative viability (HCC-44; first compound 0.2 µM): 0.858 | relative viability (NCI-H2023; first compound 0.002 µM): 0.423 | relative viability (NCI-H2023; first compound 0.006325 µM): 0.364 | relative viability (NCI-H2023; first compound 0.02 µM): 0.309 | relative viability (NCI-H2023; first compound 0.06325 µM): 0.0518 | relative viability (NCI-H2023; first compound 0.2 µM): 0.0463 | relative viability (CAL-12T; first compound 0.002 µM): 0.601 | relative viability (CAL-12T; first compound 0.006325 µM): 0.467 | relative viability (CAL-12T; first compound 0.02 µM): 0.161 | relative viability (CAL-12T; first compound 0.06325 µM): 0.11 | relative viability (CAL-12T; first compound 0.2 µM): 0.0956
